Test results as given in patent publication US5164189A, “Single layer transdermal drug administration system” (priority 1991, dated 1992).

Tests used:
[1] = cited from earlier work
[2] = in vivo; settings: rhesus monkey, iv, 0.05 mg/kg
Procedure: (§1) This solution was injected into the saphenous vein of each monkey at a dose of 1 mL/Kg of bodyweight.
(§2) The serum from each blood sample was separated from other blood components via centrifugation, and then stored at -20° C. until the analysis described in Example 1(f)(1) was performed.
(§3) In separate clean test tubes, 1.5 mL of serum standard (Example 1(d)), serum sample (Examples 1(d) and (e)) and blank (Example 1(d)) was separately buffered with 150 microliters of a 0.42 M phosphate buffer, pH 7.2.
(§4) Each serum sample was then extracted with 4.5 mL of chloroform containing 0.1 M Di (2-ethylhexyl) phosphate (DEHP). The chloroform layer was separated into clean screw cap test tubes and mixed with 375 microliters of a 0.5 M HCl solution.
(§5) The aqueous extracts were then separated by centrifugation and analyzed by the HPLC-Fluorescence procedure described directly below.
(§6) The HPLC system consisted of a Waters Model 590 (Millipore Corporation, Bedford, Mass.) solvent delivery system equipped with a Waters Model 710 B Wisp auto injector, a Zorbax CN column (Dupont, 6 micron particles, 25 cm×4.6 mm internal diameter), Kratos (Kratos Analytical Instruments)Model 970 fluorescence detector (excitation 225 nm and emission 280 nm), and the Ingrad Data Analysis system (G. D. Searle & Co.). […] The mobile phase was pumped at a flow rate of 1.0 mL/minute. The injection volume was 100 microliters. The sensitivity of the method was 2.0 ng/mL.
(§7) The coefficient of variation associated with low (10 ng/mL) and high (80 ng/mL) quality control standard solutions were 4.5 and 3.4 percent, respectively.

[3] = Intravenous albuterol pharmacokinetics in Rhesus monkeys; settings: 0.05 mg/kg
Procedure: as §1, §2, §3, §4, §5, §6, §7

CC(C)(C)NCC(O)c1ccc(O)c(CO)c1 (centres unmarked) [albuterol]
Apparent volume of distribution in humans ([1]; human): 2200 mL/kg
Oral bioavailability ([1]; oral, extensive first pass metabolism, 'as low as'): ≥ 10%
AUC [2]: 84.2 ng·h/mL
Apparent volume of distribution ([3]; 50 mcg/Kg IV, Rhesus monkeys, n=4, mean): 1935.9 mL/kg
Vd ([3]; rhesus monkey, serum, iv): 1.94 ± 0.0372 L/kg
